# BindingDB's records for doi:10.1016/s0960-894x(02)00131-2 (Shire Biochem, 2002)
# Molecular target: Prothrombin/thrombin (Homo sapiens) (UniProt P00734)
# Assay: Inhibition of amidolytic activity of thrombin
row,Ki [nM],SMILES
1,1,"N=C(N)c1ccc(CNC(=O)[C@@H]2CC[C@H]3CN(S(=O)(=O)CC(c4ccccc4)c4ccccc4)CC(=O)N32)cc1 [(6S,8aS)-2-(2,2-Diphenyl-ethanesulfonyl)-4-oxo-octahydro-pyrrolo[1,2-a]pyrazine-6-carboxylic acid 4-carbamimidoyl-benzylamide]"
2,35,"Nc1ccc(CNC(=O)[C@@H]2CC[C@H]3CN(S(=O)(=O)CC(c4ccccc4)c4ccccc4)CC(=O)N32)cn1 [(6S,8aS)-2-(2,2-Diphenyl-ethanesulfonyl)-4-oxo-octahydro-pyrrolo[1,2-a]pyrazine-6-carboxylic acid (6-amino-pyridin-3-ylmethyl)-amide]"
3,2,"Cc1cc(C(=N)N)ccc1CNC(=O)[C@@H]1CC[C@H]2CN(S(=O)(=O)C(c3ccccc3)c3ccccc3)CC(=O)N21 [(6S,8aS)-2-(Diphenyl-methanesulfonyl)-4-oxo-octahydro-pyrrolo[1,2-a]pyrazine-6-carboxylic acid 4-carbamimidoyl-2-methyl-benzylamide]"
4,1,"N=C(N)c1ccc(CNC(=O)[C@@H]2CC[C@H]3CN(S(=O)(=O)C(c4ccccc4)c4ccccc4)CC(=O)N32)cc1 [(6S,8aS)-2-(Diphenyl-methanesulfonyl)-4-oxo-octahydro-pyrrolo[1,2-a]pyrazine-6-carboxylic acid 4-carbamimidoyl-benzylamide]"
5,75,"O=C(NCc1ccc2nc[nH]c2c1)[C@@H]1CC[C@H]2CN(S(=O)(=O)C(c3ccccc3)c3ccccc3)CC(=O)N21 [(6S,8aS)-2-(Diphenyl-methanesulfonyl)-4-oxo-octahydro-pyrrolo[1,2-a]pyrazine-6-carboxylic acid (1H-benzoimidazol-5-ylmethyl)-amide]"
6,75,"N=C(N)c1ccc2c(c1)CCC2NC(=O)[C@@H]1CC[C@H]2CN(S(=O)(=O)C(c3ccccc3)c3ccccc3)CC(=O)N21 (stereo partly drawn) [(6S,8aS)-2-(Diphenyl-methanesulfonyl)-4-oxo-octahydro-pyrrolo[1,2-a]pyrazine-6-carboxylic acid (5-carbamimidoyl-indan-1-yl)-amide]"
7,10,"Cc1nc(N)ccc1CNC(=O)[C@@H]1CC[C@H]2CN(S(=O)(=O)C(c3ccccc3)c3ccccc3)CC(=O)N21 [(6S,8aS)-2-(Diphenyl-methanesulfonyl)-4-oxo-octahydro-pyrrolo[1,2-a]pyrazine-6-carboxylic acid (6-amino-2-methyl-pyridin-3-ylmethyl)-amide]"
8,135,"Nc1ncc(CCNC(=O)[C@@H]2CC[C@H]3CN(S(=O)(=O)C(c4ccccc4)c4ccccc4)CC(=O)N32)[nH]1 [(6S,8aS)-2-(Diphenyl-methanesulfonyl)-4-oxo-octahydro-pyrrolo[1,2-a]pyrazine-6-carboxylic acid [2-(2-amino-1H-imidazol-4-yl)-ethyl]-amide]"

# Continued, molecule first:
row,SMILES,Ki [nM]
1,"N=C(N)N1CCC(CNC(=O)[C@@H]2CC[C@H]3CN(S(=O)(=O)CC(c4ccccc4)c4ccccc4)CC(=O)N32)CC1 [(6S,8aS)-2-(2,2-Diphenyl-ethanesulfonyl)-4-oxo-octahydro-pyrrolo[1,2-a]pyrazine-6-carboxylic acid (1-carbamimidoyl-piperidin-4-ylmethyl)-amide]",8
2,"N[C@H]1CC[C@H](CNC(=O)[C@@H]2CC[C@H]3CN(S(=O)(=O)CC(c4ccccc4)c4ccccc4)CC(=O)N32)CC1 [(6S,8aS)-2-(2,2-Diphenyl-ethanesulfonyl)-4-oxo-octahydro-pyrrolo[1,2-a]pyrazine-6-carboxylic acid (4-amino-cyclohexylmethyl)-amide]",5
3,"Cc1nc(N)ccc1CNC(=O)[C@@H]1CC[C@H]2CN(S(=O)(=O)CC(c3ccccc3)c3ccccc3)CC(=O)N21 [(6S,8aS)-2-(2,2-Diphenyl-ethanesulfonyl)-4-oxo-octahydro-pyrrolo[1,2-a]pyrazine-6-carboxylic acid (6-amino-2-methyl-pyridin-3-ylmethyl)-amide]",48
4,"N=C(NO)N1CCC(CNC(=O)[C@@H]2CC[C@H]3CN(S(=O)(=O)CC(c4ccccc4)c4ccccc4)CC(=O)N32)CC1 [(6S,8aS)-2-(2,2-Diphenyl-ethanesulfonyl)-4-oxo-octahydro-pyrrolo[1,2-a]pyrazine-6-carboxylic acid [1-(N-hydroxycarbamimidoyl)-piperidin-4-ylmethyl]-amide]",2
5,"N=C(NO)N1CCC(CNC(=O)[C@@H]2CC[C@H]3CN(C(=O)CC(c4ccccc4)c4ccccc4)CC(=O)N32)CC1 [(6S,8aS)-2-(3,3-Diphenyl-propionyl)-4-oxo-octahydro-pyrrolo[1,2-a]pyrazine-6-carboxylic acid [1-(N-hydroxycarbamimidoyl)-piperidin-4-ylmethyl]-amide]",25
6,"N=C(N)N1CCC(CNC(=O)[C@@H]2CC[C@H]3CN(S(=O)(=O)C(c4ccccc4)c4ccccc4)CC(=O)N32)CC1 [(6S,8aS)-2-(Diphenyl-methanesulfonyl)-4-oxo-octahydro-pyrrolo[1,2-a]pyrazine-6-carboxylic acid (1-carbamimidoyl-piperidin-4-ylmethyl)-amide]",9
7,"N[C@H]1CC[C@H](CNC(=O)[C@@H]2CC[C@H]3CN(S(=O)(=O)C(c4ccccc4)c4ccccc4)CC(=O)N32)CC1 [(6S,8aS)-2-(Diphenyl-methanesulfonyl)-4-oxo-octahydro-pyrrolo[1,2-a]pyrazine-6-carboxylic acid (4-amino-cyclohexylmethyl)-amide]",5
8,"N=C(N)[C@H]1CC[C@H](CNC(=O)[C@@H]2CC[C@H]3CN(S(=O)(=O)C(c4ccccc4)c4ccccc4)CC(=O)N32)CC1 [(6S,8aS)-2-(Diphenyl-methanesulfonyl)-4-oxo-octahydro-pyrrolo[1,2-a]pyrazine-6-carboxylic acid (4-carbamimidoyl-cyclohexylmethyl)-amide]",2
9,"N=C(NO)N1CCC(CNC(=O)[C@@H]2CC[C@H]3CN(S(=O)(=O)C(c4ccccc4)c4ccccc4)CC(=O)N32)CC1 [(6S,8aS)-2-(Diphenyl-methanesulfonyl)-4-oxo-octahydro-pyrrolo[1,2-a]pyrazine-6-carboxylic acid [1-(N-hydroxycarbamimidoyl)-piperidin-4-ylmethyl]-amide]",2
10,"N=C(NO)N1CCC(CNC(=O)[C@@H]2CC[C@H]3CN(S(=O)(=O)CCc4ccccc4)CC(=O)N32)CC1 [(6S,8aS)-4-Oxo-2-(2-phenyl-ethanesulfonyl)-octahydro-pyrrolo[1,2-a]pyrazine-6-carboxylic acid [1-(N-hydroxycarbamimidoyl)-piperidin-4-ylmethyl]-amide]",14
11,"N=C(N)N1CCC(CNC(=O)[C@@H]2CC[C@H]3CN(C(=O)CCc4ccccc4)CC(=O)N32)CC1 [(6S,8aS)-4-Oxo-2-(3-phenyl-propionyl)-octahydro-pyrrolo[1,2-a]pyrazine-6-carboxylic acid (1-carbamimidoyl-piperidin-4-ylmethyl)-amide]",180
